According to ChEMBL document CHEMBL1201862, “PubChem BioAssay data set” (2004):
Activity calls are given as the source filed them.

How the values were obtained:
Cytochrome P450 2D6 = Cytochrome P450 2D6 (Homo sapiens, UniProt P10635);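 note: CYP2D6 member of a cytochrome P450 panel assay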
Cytochrome P450 1A2 = molecular target: T1, Cytochrome P450 1A2 (Homo sapiens, UniProt P05177);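 note: PubChem cytochrome P450 panel assay, CYP1A2 panel member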
T1 sequence (P05177 whole entry): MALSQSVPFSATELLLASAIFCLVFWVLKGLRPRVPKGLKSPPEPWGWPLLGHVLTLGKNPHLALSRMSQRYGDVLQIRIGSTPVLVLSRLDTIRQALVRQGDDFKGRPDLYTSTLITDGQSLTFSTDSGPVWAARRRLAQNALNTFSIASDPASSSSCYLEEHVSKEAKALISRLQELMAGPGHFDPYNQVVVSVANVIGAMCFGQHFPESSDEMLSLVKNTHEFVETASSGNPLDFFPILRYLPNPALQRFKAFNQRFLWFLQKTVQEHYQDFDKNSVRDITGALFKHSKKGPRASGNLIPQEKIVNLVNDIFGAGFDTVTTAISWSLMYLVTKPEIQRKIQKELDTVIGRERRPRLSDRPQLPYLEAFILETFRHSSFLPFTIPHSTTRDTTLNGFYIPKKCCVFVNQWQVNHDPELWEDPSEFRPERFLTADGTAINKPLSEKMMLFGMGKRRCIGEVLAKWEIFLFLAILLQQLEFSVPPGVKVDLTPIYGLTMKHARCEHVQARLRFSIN

[1] = molecular target: T2, Heat shock factor protein 1 (Mus musculus, UniProt P38532); assay: decrease of HSF1-responsive luciferase luminescence – cell-based, NIH3T3, dose retest, confirmation (AID 2382); assay type: functional;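 note: NIH3T3 fibroblasts with HSF1-driven luciferase reporter stressed by proteasome inhibitor MG132; luminescence from HSF1-driven luciferase expression after 8 hours of MG132 stress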
T2 sequence (P38532 whole entry): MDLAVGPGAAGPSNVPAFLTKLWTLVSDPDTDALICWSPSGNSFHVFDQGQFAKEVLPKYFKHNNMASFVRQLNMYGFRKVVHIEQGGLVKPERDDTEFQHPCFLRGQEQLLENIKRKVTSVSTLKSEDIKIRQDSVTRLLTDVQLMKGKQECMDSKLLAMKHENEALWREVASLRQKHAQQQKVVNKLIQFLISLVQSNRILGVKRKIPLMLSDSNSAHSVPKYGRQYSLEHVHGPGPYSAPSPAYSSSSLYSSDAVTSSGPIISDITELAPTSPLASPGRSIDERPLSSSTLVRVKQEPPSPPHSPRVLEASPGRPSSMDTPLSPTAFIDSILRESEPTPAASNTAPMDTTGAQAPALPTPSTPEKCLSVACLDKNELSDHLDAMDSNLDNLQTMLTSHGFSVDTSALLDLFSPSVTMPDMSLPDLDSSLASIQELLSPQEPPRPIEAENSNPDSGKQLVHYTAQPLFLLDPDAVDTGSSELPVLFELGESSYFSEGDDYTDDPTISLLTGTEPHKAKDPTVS

[2] = luciferase reporter signal suppression in cells – H4 neuroglioma cells, luminescence, dose response (AID 1990); assay type: functional, cell-based
[3] = alpha-synuclein stem-loop luciferase translation blockers – H4 neuroglioma cells, luminescence, confirmation (AID 1988); assay type: functional, cell-based
[4] = Luminescence Cell-Based Dose Response HTS to Identify Inhibitors of 5'UTR Stem-Loop Driven Prion Protein mRNA Translation in H4 Neuroglioblastoma Cells. [Related pubchem assays: 1827 (Project Summary), 1813 (Primary HTS)]; assay type: functional
Cytochrome P450 2C9 = Cytochrome P450 2C9 (Homo sapiens, UniProt P11712)
Genome polyprotein = Genome polyprotein (dengue virus type 2, UniProt P29990); assay: flavivirus cap methylation enzyme inhibition – biochemical, confirmation dose response, primary screen (AID 588689); assay type: functional
Cytochrome P450 3A4 = Cytochrome P450 3A4 (Homo sapiens, UniProt P08684);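 note: CYP3A4 tested as one member of a cytochrome P450 panel screen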
[5] = molecular target: T3, RNA-binding protein pos-1 (Caenorhabditis elegans, UniProt G5EF15); assay: disruptors of C. elegans POS-1 RNA interaction – biochemical, fluorescence polarization, dose response (AID 1964);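 note: purified POS-1 fused to maltose binding protein made in E. coli; potency of compounds blocking POS-1 binding to fluorescent RNA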
T3 sequence (G5EF15 whole entry): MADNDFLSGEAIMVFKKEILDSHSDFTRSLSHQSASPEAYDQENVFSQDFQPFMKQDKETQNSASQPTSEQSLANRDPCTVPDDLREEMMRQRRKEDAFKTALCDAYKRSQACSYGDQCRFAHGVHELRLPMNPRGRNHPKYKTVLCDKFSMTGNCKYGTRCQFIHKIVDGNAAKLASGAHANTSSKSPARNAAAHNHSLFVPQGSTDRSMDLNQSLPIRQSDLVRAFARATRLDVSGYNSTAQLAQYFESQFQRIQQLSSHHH

[6] = molecular target: T4, Zinc finger protein mex-5 (Caenorhabditis elegans, UniProt Q9XUB2); assay: potency of MEX-5 RNA-binding blockers – biochemical, C. elegans, fluorescence polarization, dose response (AID 1960)
T4 sequence (Q9XUB2 whole entry): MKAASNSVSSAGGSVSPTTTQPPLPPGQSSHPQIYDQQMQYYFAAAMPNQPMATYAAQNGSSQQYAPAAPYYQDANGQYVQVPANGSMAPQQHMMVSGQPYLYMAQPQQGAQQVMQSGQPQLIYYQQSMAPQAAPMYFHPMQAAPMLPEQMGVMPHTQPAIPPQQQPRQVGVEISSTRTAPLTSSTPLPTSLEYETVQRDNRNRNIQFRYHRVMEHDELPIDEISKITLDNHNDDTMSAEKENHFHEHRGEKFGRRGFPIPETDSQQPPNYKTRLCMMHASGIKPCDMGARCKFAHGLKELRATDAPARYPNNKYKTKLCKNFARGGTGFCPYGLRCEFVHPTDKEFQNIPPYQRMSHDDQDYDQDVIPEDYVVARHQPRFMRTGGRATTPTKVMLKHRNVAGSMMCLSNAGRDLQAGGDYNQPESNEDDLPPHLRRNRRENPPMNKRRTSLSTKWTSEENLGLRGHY

Cytochrome P450 2C19 = Cytochrome P450 2C19 (Homo sapiens, UniProt P33261); assay: Cytochrome panel assay with activity outcomes. Panel member name: p450-cyp2c19 Compounds with AC50 equal or less than 10 uM are considered active; assay type: functional; settings: read-out: AC50
[7] = system: Streptococcus sp. 'group A'; assay: Streptococcus pyogenes SK(-)GAS viability under kanamycin – luminescence, BacTiterGlo, confirmation, counter-screen for streptokinase expression inhibitor project, dose response (AID 1900); assay type: functional, organism-based
INS1 = assay: INS-1E survival protection against cytokine death – cell-based, luminescence, retest, dose response (AID 449756); assay type: functional; settings: Rattus norvegicus;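 note: cell death triggered by IL-1 beta plus TNF-alpha plus IFN-gamma mixture; protective hits raise ATP signal compared with cytokine alone wells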
Streptococcus = assay: GAS UMAA2166 growth inhibition – luminescence, BacTiterGlo, counter-screen for streptokinase expression inhibitor project, dose response (AID 1915); assay type: functional, organism-based;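 note: potency for reduction of bacterial viability or growth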
[8] = Trypanosoma cruzi growth suppression in host cells – NIH3T3 host cells, beta-gal luminescence, confirmation (AID 2044); assay type: functional, cell-based;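 note: intracellular parasites grown in NIH/3T3 mouse fibroblasts as host cells; luminescent beta-galactosidase reporter signal from transgenic T. cruzi replicating inside host cells; inhibitors lower the luminescence signal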
[9] = NIH3T3 cell viability loss – ATP luminescence, mouse fibroblasts, counter-screen, dose response (AID 2010); assay type: functional, cell-based;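 note: cells exposed to compound for about 90 hours before reading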

Chain of Cytochrome P450 2C9 (P11712 whole entry): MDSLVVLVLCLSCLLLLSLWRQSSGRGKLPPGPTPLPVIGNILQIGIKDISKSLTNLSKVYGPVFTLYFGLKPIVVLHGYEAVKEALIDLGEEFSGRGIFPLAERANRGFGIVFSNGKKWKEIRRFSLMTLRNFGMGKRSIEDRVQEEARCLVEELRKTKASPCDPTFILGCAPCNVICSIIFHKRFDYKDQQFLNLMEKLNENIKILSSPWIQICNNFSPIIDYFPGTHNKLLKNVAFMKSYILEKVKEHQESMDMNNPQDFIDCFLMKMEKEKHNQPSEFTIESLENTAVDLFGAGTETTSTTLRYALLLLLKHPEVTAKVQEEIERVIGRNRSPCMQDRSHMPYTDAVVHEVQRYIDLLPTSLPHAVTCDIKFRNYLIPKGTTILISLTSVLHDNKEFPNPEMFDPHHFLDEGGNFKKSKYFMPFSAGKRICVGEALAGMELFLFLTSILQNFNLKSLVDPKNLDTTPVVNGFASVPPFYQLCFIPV
Chain of Cytochrome P450 3A4 (P08684 whole entry, the tested form may be a part): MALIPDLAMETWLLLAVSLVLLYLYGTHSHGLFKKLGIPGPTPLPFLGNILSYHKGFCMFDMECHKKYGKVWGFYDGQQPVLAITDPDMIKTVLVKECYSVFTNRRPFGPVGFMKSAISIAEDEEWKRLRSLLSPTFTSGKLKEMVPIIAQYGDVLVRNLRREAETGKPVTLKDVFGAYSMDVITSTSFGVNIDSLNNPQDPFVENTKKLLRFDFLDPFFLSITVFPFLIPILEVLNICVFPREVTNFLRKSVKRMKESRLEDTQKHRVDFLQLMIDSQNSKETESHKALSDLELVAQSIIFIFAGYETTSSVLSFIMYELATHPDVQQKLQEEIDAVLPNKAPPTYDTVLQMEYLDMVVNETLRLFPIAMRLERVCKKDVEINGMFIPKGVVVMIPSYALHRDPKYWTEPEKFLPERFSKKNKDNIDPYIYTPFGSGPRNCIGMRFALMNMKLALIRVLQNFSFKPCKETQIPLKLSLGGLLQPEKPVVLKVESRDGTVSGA
Chain of Cytochrome P450 2D6 (P10635 whole entry): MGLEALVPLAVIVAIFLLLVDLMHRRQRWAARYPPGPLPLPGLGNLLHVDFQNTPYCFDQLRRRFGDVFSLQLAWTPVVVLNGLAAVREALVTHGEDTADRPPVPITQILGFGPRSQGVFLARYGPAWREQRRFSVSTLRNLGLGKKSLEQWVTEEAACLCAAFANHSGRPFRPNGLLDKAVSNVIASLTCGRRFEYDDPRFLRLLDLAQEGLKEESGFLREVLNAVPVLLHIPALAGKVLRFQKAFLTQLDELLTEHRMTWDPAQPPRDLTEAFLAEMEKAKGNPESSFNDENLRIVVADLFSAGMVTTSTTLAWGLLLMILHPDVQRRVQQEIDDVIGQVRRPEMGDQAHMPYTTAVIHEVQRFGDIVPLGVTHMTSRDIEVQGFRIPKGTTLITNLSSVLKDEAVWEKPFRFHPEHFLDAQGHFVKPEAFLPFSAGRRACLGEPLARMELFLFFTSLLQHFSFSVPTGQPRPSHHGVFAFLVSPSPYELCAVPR
Chain of Cytochrome P450 2C19 (P33261 whole entry): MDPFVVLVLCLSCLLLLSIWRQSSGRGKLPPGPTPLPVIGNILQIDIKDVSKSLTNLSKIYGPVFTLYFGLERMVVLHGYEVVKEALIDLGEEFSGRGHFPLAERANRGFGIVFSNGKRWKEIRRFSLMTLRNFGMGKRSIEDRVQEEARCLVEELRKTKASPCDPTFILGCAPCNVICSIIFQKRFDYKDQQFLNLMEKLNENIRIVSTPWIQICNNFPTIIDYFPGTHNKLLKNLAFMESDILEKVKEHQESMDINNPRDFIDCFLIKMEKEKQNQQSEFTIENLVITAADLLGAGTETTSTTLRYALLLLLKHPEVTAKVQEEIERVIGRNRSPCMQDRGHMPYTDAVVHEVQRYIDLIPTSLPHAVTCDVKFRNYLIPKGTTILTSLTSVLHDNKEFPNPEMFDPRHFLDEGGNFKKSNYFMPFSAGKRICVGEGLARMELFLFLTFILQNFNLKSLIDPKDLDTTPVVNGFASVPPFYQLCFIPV
Chain of Genome polyprotein (P29990 2492-3391 limits assumed): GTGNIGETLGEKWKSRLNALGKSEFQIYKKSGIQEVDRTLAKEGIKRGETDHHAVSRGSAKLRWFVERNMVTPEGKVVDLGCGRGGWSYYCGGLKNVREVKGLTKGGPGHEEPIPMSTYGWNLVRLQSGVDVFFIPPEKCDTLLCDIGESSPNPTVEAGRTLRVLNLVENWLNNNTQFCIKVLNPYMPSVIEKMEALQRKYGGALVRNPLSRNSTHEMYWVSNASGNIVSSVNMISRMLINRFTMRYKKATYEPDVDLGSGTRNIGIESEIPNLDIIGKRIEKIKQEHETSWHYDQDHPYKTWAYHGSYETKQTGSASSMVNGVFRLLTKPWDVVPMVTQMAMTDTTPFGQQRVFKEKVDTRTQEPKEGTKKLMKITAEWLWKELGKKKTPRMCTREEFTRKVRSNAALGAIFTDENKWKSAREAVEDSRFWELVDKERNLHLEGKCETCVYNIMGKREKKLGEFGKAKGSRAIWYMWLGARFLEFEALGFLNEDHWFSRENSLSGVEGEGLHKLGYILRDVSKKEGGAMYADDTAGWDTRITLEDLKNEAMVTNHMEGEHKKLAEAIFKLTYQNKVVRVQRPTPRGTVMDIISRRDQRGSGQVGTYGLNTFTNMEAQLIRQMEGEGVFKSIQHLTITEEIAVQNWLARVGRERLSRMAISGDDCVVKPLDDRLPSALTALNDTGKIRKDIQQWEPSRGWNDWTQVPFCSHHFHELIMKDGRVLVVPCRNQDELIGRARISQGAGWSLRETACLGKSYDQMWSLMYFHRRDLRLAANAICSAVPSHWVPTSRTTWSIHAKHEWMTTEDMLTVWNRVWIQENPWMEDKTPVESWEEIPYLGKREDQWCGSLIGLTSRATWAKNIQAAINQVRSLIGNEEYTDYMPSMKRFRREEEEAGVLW

SMILES | AC50 (Cytochrome P450 2D6) | AC50 (Cytochrome P450 1A2) | EC50 [3] | EC50 [4] | further results
COCCn1c(=O)c(-c2cccc(C#N)c2)nc2cnc(Nc3ccccc3)nc21 | 2.51 µM (inconclusive) | 2.51 µM (inconclusive) |  |  | 
c1ccc(Oc2cccc(OCCn3cncn3)c2)cc1 |  |  | > 120 µM (not active) | > 120 µM (not active) | EC50 [1]: > 195 µM (not active); EC50 [2]: > 120 µM (not active)
COc1cccc(Nc2ncc3nc(-c4ccc(F)cc4)c(=O)n(C)c3n2)c1 |  | 3.16 µM (inconclusive) |  |  | 
COc1ccc2nc(C)cc(SCC(=O)NNC(=O)COc3ccc(C)cc3)c2c1 | 2 µM (inconclusive) |  |  |  | AC50 (Cytochrome P450 2C9): 1.78 µM (inconclusive)
Cc1ccc(S(=O)(=O)NN2C(=O)/C(=C/c3ccc(C(=O)O)cc3)SC2=S)cc1 |  |  |  |  | IC50 (Genome polyprotein): 64.9 µM (active)
COC(=O)C/C=C\[C@@H](C)[C@@H](/C=N\O[C@@H](C)CN1CCCc2nc(C)c(C)cc21)OC | 2.51 µM (inconclusive) |  |  |  | AC50 (Cytochrome P450 3A4): 3.16 µM (inconclusive)
COc1cc(C2C(C#N)=C(N)OC3=C2C(=O)CC(C)(C)C3)c([N+](=O)[O-])cc1OC (stereo not given) |  |  |  |  | IC50 (Genome polyprotein): > 100 µM (active); EC50 [5]: 19.5 µM (active); EC50 [6]: 23 µM (inconclusive)
Cc1ccc(-n2nc3ccc(N)cc3n2)c(C)c1 |  |  | 16.6 µM (active) | 20.3 µM (active) | EC50 [2]: 15.2 µM (active)
O=[N+]([O-])c1ccc(Nc2nc3ccccc3s2)cc1 | 3.16 µM (inconclusive) |  |  |  | AC50 (Cytochrome P450 3A4): 5.01 µM (inconclusive)
CN(C)c1ncc2nc(CCc3ccccc3)c(=O)n(Cc3cccs3)c2n1 | 25.1 µM (inconclusive) |  |  |  | 
CNCCNS(=O)(=O)c1cccc2cnccc12 | 5.01 µM (inconclusive) |  |  |  | AC50 (Cytochrome P450 3A4): 20 µM (inconclusive)
CC(C)Oc1ccccc1C1Nc2ccccc2C(=O)N1c1ccc2c(c1)OCCO2 (stereo not given) |  |  | 9.51 µM (active) | > 120 µM (not active) | 
O=C(c1cc(C(F)(F)F)cc(C(F)(F)F)c1)N1CCC[C@@]2(CCN(Cc3nccs3)C2)C1 |  | 20 µM (inconclusive) |  |  | 
Cc1ccc2c(c1)[C@@H]1CN(C)CC[C@@H]1N2S(=O)(=O)c1ccc(F)cc1 |  | 17.8 µM (inconclusive) |  |  | AC50 (Cytochrome P450 2C19): 28.2 µM (inconclusive); AC50 (Cytochrome P450 2C9): 0.00562 µM (inconclusive)
NNC(=O)c1[nH]c2ccccc2c1-c1ccccc1 |  |  | > 120 µM (not active) | > 120 µM (not active) | EC50 [2]: > 120 µM (not active)
Nc1nc(O)c(/N=N\c2ccccc2)c(C(=O)O)n1 |  | 1.26 µM (inconclusive) |  |  | 

SMILES | AC50 (Cytochrome P450 2D6) | AC50 (Cytochrome P450 1A2) | EC50 [3] | EC50 [4] | further results
CCCCn1c(SCC(=O)Nc2nccs2)nc2ccccc2c1=O |  | 0.2 µM (inconclusive) |  |  | AC50 (Cytochrome P450 2C19): 0.0708 µM (inconclusive); AC50 (Cytochrome P450 2C9): 0.398 µM (inconclusive)
CO[C@H]1COC(=O)[C@H]2CCCN2C(=O)C/C=C\[C@@H](C)[C@H](OC)COC(=O)[C@@H](OCc2ccccc2)/C=C\[C@@H]1C | 3.16 µM (inconclusive) |  |  |  | AC50 (Cytochrome P450 3A4): 3.98 µM (inconclusive)
O[C@@H](COc1ccc(Cl)cc1Cl)CN1CCCC1 |  | 5.01 µM (inconclusive) |  |  | 
CC[C@H](Oc1ccc(Cl)cc1)C(=O)OC1C[C@H]2CC[C@@H](C1)N2C (stereo not given in full) |  | 31.6 µM (inconclusive) |  |  | 
CCOC(=O)N1CCN(C(=O)CN(c2ccc(OC)cc2)S(C)(=O)=O)CC1 |  |  | > 120 µM (not active) | 83.4 µM (active) | EC50 [2]: > 120 µM (not active)
Cn1c(SCc2nc(O)c3ccc(C(=O)O)cc3n2)nnc1C(F)(F)F |  |  | > 120 µM (not active) | 38.9 µM (active) | EC50 [2]: > 120 µM (not active)
CC(C)C[C@H](NC(=O)c1[nH]cnc1C(=O)N[C@@H](CC(C)C)C(=O)OC(C)(C)C)C(=O)OCc1ccccc1 |  |  | 8.51 µM (active) | 15.7 µM (active) | EC50 [7]: 2.62 µM (active); AC50 (INS1): 11.8 µM (active); EC50 (Streptococcus): 6.41 µM (active); EC50 [2]: 21.1 µM (active)
COc1cccc(-c2cc(NCc3cccnc3)ncn2)c1 | 25.1 µM (inconclusive) |  |  |  | 
Cc1ccc2sc(N(CCCN(C)C)C(=O)CCS(=O)(=O)c3ccccc3)nc2c1C |  |  | 11.1 µM (active) | 13.7 µM (active) | EC50 [8]: 0.226 µM (active); EC50 [9]: 4.17 µM (active); EC50 [2]: 14.3 µM (active)
O=C(NCCN1CCN(C(=O)c2cccc(Br)c2)CC1)C(=O)Nc1ccc(Br)cc1 |  |  | 65.2 µM (active) | 18.7 µM (active) | EC50 [2]: 13.8 µM (active)
COc1ccc(Nc2nc(N)nc(CSc3nc(C)cc(C)n3)n2)cc1 |  |  | 91.3 µM (active) | > 120 µM (not active) | EC50 [1]: > 195 µM (not active); EC50 [2]: 19.8 µM (active)
CS(=O)(=O)Nc1cccc(-c2ccc3ncnc(NCc4cccnc4)c3c2)c1 | 20 µM (inconclusive) |  |  |  | 
CC(C)(C)NC(=O)CN(Cc1cccs1)C(=O)CCC(=O)Nc1nccs1 | 28.2 µM (inconclusive) |  |  |  | 
COc1ccc(C(=O)N/N=C2/SCC(=O)N2Cc2ccc3c(c2)OCO3)cc1OC |  | 25.1 µM (inconclusive) |  |  | 
CN(C)C(=O)c1ccc(-c2ccc3ncnc(NCc4ccccc4)c3c2)cc1 | 31.6 µM (inconclusive) |  |  |  | 
Clc1ccc2c(NCCNc3ccnc4cc(Cl)ccc34)ccnc2c1 |  | 5.01 µM (inconclusive) |  |  | 
